Where “and” joins values, the source holds several entries; their conditions need not be identical. Equal values may be shown once.
Experiments:
[1] = system: rhesus monkeys with spontaneous chronic kidney disease; assay: Effect on glomerular filtration rate eGFRcreat-cys, 8-week administration; format: in vivo, Macaca mulatta (Rhesus Macaque)
Method: CKD-EPI rating […]-G3b, glomerular filtration rate eGFR: 30 59 ml/min/1.73 m^2; or moderate to severe increase in proteinuria (A2-A3): urine albumin/creatinine ratio (UACR)>15 mg/g-350 mg/g (4-6 hour urine collection), vs. age-matched control group 3±2 mg/g. In the trial, animals were brought in three stages. […] Glomerular filtration rate […]: creatinine (Cr-P), urea nitrogen (BUN) and cystatin (CysC) were detected, and the eGFR value was obtained by calculation. It was performed once before the administration and once every two weeks after the administration. […] ELISA kit was used for NT-proBNP test. [table] Selected […] in each group: 30 59 ml/min/1.73 m^2. The changes in the glomerular filtration rate of W8 and baseline were analyzed.

[2] = system: rhesus monkeys with spontaneous chronic kidney disease; assay: Effect on plasma creatinine Cr-P, 8-week administration; format: in vivo, Macaca mulatta (Rhesus Macaque); conditions: 1 mg/kg (n = 5)
Method: In the trial, animals were brought in three stages. […] Glomerular filtration rate […]: creatinine (Cr-P), urea nitrogen (BUN) and cystatin (CysC) were detected, and the eGFR value was obtained by calculation. It was performed once before the administration and once every two weeks after the administration. […] ELISA kit was used for NT-proBNP test. [table]

## COC(=O)NCCCn1nc([C@@H](C)N(C(=O)[C@H]2CNCCO2)C2CC2)c2ccc(C)nc21.O=C(O)C[C@H](O)C(=O)O [malate of compound of Formula I]
[1]; 1 mg/kg oral once a day, 2 weeks vs baseline, per animal + Mean ± SD
  eGFRcreat-cy, Change value: 1 ml/min/1.73 m^2 and 2 ml/min/1.73 m^2 and −3 ml/min/1.73 m^2 and −2 ml/min/1.73 m^2 and 4 ml/min/1.73 m^2
[1]; 1 mg/kg oral once a day, 2 weeks vs baseline, per animal + Mean ± SD, mean
  eGFRcreat-cy, Change value: 0 ± 3 ml/min/1.73 m^2
[1]; 1 mg/kg oral once a day, 4 weeks vs baseline, per animal + Mean ± SD
  eGFRcreat-cy, Change value: 8 ml/min/1.73 m^2 and 10 ml/min/1.73 m^2 and 3 ml/min/1.73 m^2 and 1 ml/min/1.73 m^2 and 5 ml/min/1.73 m^2
[1]; 1 mg/kg oral once a day, 4 weeks vs baseline, per animal + Mean ± SD, mean
  eGFRcreat-cy, Change value: 5 ± 4 ml/min/1.73 m^2
[1]; 1 mg/kg oral once a day, 6 weeks vs baseline, per animal + Mean ± SD
  eGFRcreat-cy, Change value: 7 ml/min/1.73 m^2 and 3 ml/min/1.73 m^2 (3×) and 6 ml/min/1.73 m^2
[1]; 1 mg/kg oral once a day, 6 weeks vs baseline, per animal + Mean ± SD, mean
  eGFRcreat-cy, Change value: 4 ± 2 ml/min/1.73 m^2
[1]; 1 mg/kg oral once a day, 8 weeks vs baseline, per animal + Mean ± SD (no statistical change vs placebo)
  eGFRcreat-cy, Change value: 3±4 ml/min/1.73 m^2 and 7 ml/min/1.73 m^2 and 6 ml/min/1.73 m^2 and 0 ml/min/1.73 m^2 and 2 ml/min/1.73 m^2 and 5 ml/min/1.73 m^2
[1]; 1 mg/kg oral once a day, Baseline, per animal + Mean ± SD
  eGFRcreat-cy, Change value: 0 ml/min/1.73 m^2
[1]; 1 mg/kg oral once a day, Baseline, per animal + Mean ± SD, mean
  eGFRcreat-cy, Change value: 0 ± 0 ml/min/1.73 m^2
[1]; 1 mg/kg qd (n = 5), 2 weeks
  eGFRcreat-cys: 53 ml/min/1.73 m^2 and 56 ml/min/1.73 m^2 and 50 ml/min/1.73 m^2 and 48 ml/min/1.73 m^2
[1]; 1 mg/kg qd (n = 5), 2 weeks, group mean
  eGFRcreat-cys: 52 ± 3 ml/min/1.73 m^2
[1]; 1 mg/kg qd (n = 5), 4 weeks
  eGFRcreat-cys: 60 ml/min/1.73 m^2 and 64 ml/min/1.73 m^2 and 55 ml/min/1.73 m^2 and 52 ml/min/1.73 m^2 and 56 ml/min/1.73 m^2
[1]; 1 mg/kg qd (n = 5), 4 weeks, group mean
  eGFRcreat-cys: 57 ± 5 ml/min/1.73 m^2
[1]; 1 mg/kg qd (n = 5), 6 weeks
  eGFRcreat-cys: 58 ml/min/1.73 m^2 and 57 ml/min/1.73 m^2 and 56 ml/min/1.73 m^2 and 53 ml/min/1.73 m^2
[1]; 1 mg/kg qd (n = 5), 6 weeks, group mean
  eGFRcreat-cys: 56 ± 2 ml/min/1.73 m^2
[1]; 1 mg/kg qd (n = 5), 8 weeks
  eGFRcreat-cys: 58 ml/min/1.73 m^2 and 59 ml/min/1.73 m^2 and 53 ml/min/1.73 m^2 and 48 ml/min/1.73 m^2 and 57 ml/min/1.73 m^2
[1]; 1 mg/kg qd (n = 5), 8 weeks, group mean
  eGFRcreat-cys: 55 ± 5 ml/min/1.73 m^2
[1]; 1 mg/kg qd (n = 5), Baseline, single animals and Mean ± SD
  eGFRcreat-cys: 51 ml/min/1.73 m^2 and 54 ml/min/1.73 m^2 and 53 ml/min/1.73 m^2 and 50 ml/min/1.73 m^2 and 52 ml/min/1.73 m^2
[1]; 1 mg/kg qd (n = 5), Baseline, single animals and Mean ± SD, group mean
  eGFRcreat-cys: 52 ± 1 ml/min/1.73 m^2
[1]; 2 mg/kg oral once a day, 2 weeks vs baseline, per animal + Mean ± SD
  eGFRcreat-cy, Change value: 5 ml/min/1.73 m^2 and −3 ml/min/1.73 m^2 (3×) and 0 ml/min/1.73 m^2
[1]; 2 mg/kg oral once a day, 2 weeks vs baseline, per animal + Mean ± SD, mean
  eGFRcreat-cy, Change value: −1 ± 3 ml/min/1.73 m^2
[1]; 2 mg/kg oral once a day, 4 weeks vs baseline, per animal + Mean ± SD
  eGFRcreat-cy, Change value: 7 ml/min/1.73 m^2 and −5 ml/min/1.73 m^2 and 1 ml/min/1.73 m^2 (2×) and 10 ml/min/1.73 m^2
[1]; 2 mg/kg oral once a day, 4 weeks vs baseline, per animal + Mean ± SD, mean
  eGFRcreat-cy, Change value: 3 ± 6 ml/min/1.73 m^2
[1]; 2 mg/kg oral once a day, 6 weeks vs baseline, per animal + Mean ± SD
  eGFRcreat-cy, Change value: 4 ml/min/1.73 m^2 and −1 ml/min/1.73 m^2 and 0 ml/min/1.73 m^2 and 5 ml/min/1.73 m^2 (2×)
[1]; 2 mg/kg oral once a day, 6 weeks vs baseline, per animal + Mean ± SD, mean
  eGFRcreat-cy, Change value: 3 ± 3 ml/min/1.73 m^2
[1]; 2 mg/kg oral once a day, 8 weeks vs baseline, per animal + Mean ± SD (p<0.05 vs placebo)
  eGFRcreat-cy, Change value: 3±3 ml/min/1.73 m^2 and 5 ml/min/1.73 m^2 and 0 ml/min/1.73 m^2 and 2 ml/min/1.73 m^2 and 6 ml/min/1.73 m^2 and 1 ml/min/1.73 m^2
[1]; 2 mg/kg oral once a day, Baseline, per animal + Mean ± SD
  eGFRcreat-cy, Change value: 0 ml/min/1.73 m^2
[1]; 2 mg/kg oral once a day, Baseline, per animal + Mean ± SD, mean
  eGFRcreat-cy, Change value: 0 ± 0 ml/min/1.73 m^2
[1]; 2 mg/kg qd (n = 5), 2 weeks
  eGFRcreat-cys: 58 ml/min/1.73 m^2 and 47 ml/min/1.73 m^2 and 46 ml/min/1.73 m^2 and 43 ml/min/1.73 m^2 and 57 ml/min/1.73 m^2
[1]; 2 mg/kg qd (n = 5), 2 weeks, group mean
  eGFRcreat-cys: 50 ± 7 ml/min/1.73 m^2
[1]; 2 mg/kg qd (n = 5), 4 weeks
  eGFRcreat-cys: 61 ml/min/1.73 m^2 and 45 ml/min/1.73 m^2 and 50 ml/min/1.73 m^2 and 56 ml/min/1.73 m^2 and 59 ml/min/1.73 m^2
[1]; 2 mg/kg qd (n = 5), 4 weeks, group mean
  eGFRcreat-cys: 54 ± 7 ml/min/1.73 m^2
[1]; 2 mg/kg qd (n = 5), 6 weeks
  eGFRcreat-cys: 58 ml/min/1.73 m^2 and 48 ml/min/1.73 m^2 and 51 ml/min/1.73 m^2 and 62 ml/min/1.73 m^2
[1]; 2 mg/kg qd (n = 5), 6 weeks, group mean
  eGFRcreat-cys: 54 ± 6 ml/min/1.73 m^2
[1]; 2 mg/kg qd (n = 5), Baseline, single animals and Mean ± SD
  eGFRcreat-cys: 54 ml/min/1.73 m^2 and 50 ml/min/1.73 m^2 and 48 ml/min/1.73 m^2 and 46 ml/min/1.73 m^2 and 58 ml/min/1.73 m^2
[1]; 2 mg/kg qd (n = 5), Baseline, single animals and Mean ± SD, group mean
  eGFRcreat-cys: 51 ± 5 ml/min/1.73 m^2
[1]; 5 mg/kg oral once a day, 2 weeks vs baseline, per animal + Mean ± SD
  eGFRcreat-cy, Change value: 4 ml/min/1.73 m^2 and 9 ml/min/1.73 m^2 and 11 ml/min/1.73 m^2 and −4 ml/min/1.73 m^2 and 1 ml/min/1.73 m^2 and 17 ml/min/1.73 m^2
[1]; 5 mg/kg oral once a day, 2 weeks vs baseline, per animal + Mean ± SD, mean
  eGFRcreat-cy, Change value: 5 ± 9 ml/min/1.73 m^2
[1]; 5 mg/kg oral once a day, 4 weeks vs baseline, per animal + Mean ± SD
  eGFRcreat-cy, Change value: −3 ml/min/1.73 m^2 and 4 ml/min/1.73 m^2 and 6 ml/min/1.73 m^2 and 2 ml/min/1.73 m^2 and 12 ml/min/1.73 m^2 and 11 ml/min/1.73 m^2
[1]; 5 mg/kg oral once a day, 4 weeks vs baseline, per animal + Mean ± SD, mean
  eGFRcreat-cy, Change value: 5 ± 6 ml/min/1.73 m^2
[1]; 5 mg/kg oral once a day, 6 weeks vs baseline, per animal + Mean ± SD
  eGFRcreat-cy, Change value: −1 ml/min/1.73 m^2 (2×) and 6 ml/min/1.73 m^2 and −2 ml/min/1.73 m^2 and 11 ml/min/1.73 m^2 (2×)
[1]; 5 mg/kg oral once a day, 6 weeks vs baseline, per animal + Mean ± SD, mean
  eGFRcreat-cy, Change value: 4 ± 6 ml/min/1.73 m^2
[1]; 5 mg/kg oral once a day, 8 weeks vs baseline, per animal + Mean ± SD (p<0.05 vs placebo)
  eGFRcreat-cy, Change value: 6±6 ml/min/1.73 m^2 and 3 ml/min/1.73 m^2 and 6 ml/min/1.73 m^2 and 4 ml/min/1.73 m^2 and 2 ml/min/1.73 m^2 and 8 ml/min/1.73 m^2 and 17 ml/min/1.73 m^2
[1]; 5 mg/kg oral once a day, Baseline, per animal + Mean ± SD
  eGFRcreat-cy, Change value: 0 ml/min/1.73 m^2
[1]; 5 mg/kg oral once a day, Baseline, per animal + Mean ± SD, mean
  eGFRcreat-cy, Change value: 0 ± 0 ml/min/1.73 m^2
[1]; 5 mg/kg qd (n = 6), 2 weeks
  eGFRcreat-cys: 51 ml/min/1.73 m^2 and 57 ml/min/1.73 m^2 and 62 ml/min/1.73 m^2 and 37 ml/min/1.73 m^2 and 54 ml/min/1.73 m^2 and 61 ml/min/1.73 m^2
[1]; 5 mg/kg qd (n = 6), 2 weeks, group mean
  eGFRcreat-cys: 54 ± 9 ml/min/1.73 m^2
[1]; 5 mg/kg qd (n = 6), 6 weeks
  eGFRcreat-cys: 53 ml/min/1.73 m^2 and 54 ml/min/1.73 m^2 and 49 ml/min/1.73 m^2 and 40 ml/min/1.73 m^2 and 64 ml/min/1.73 m^2
[1]; 5 mg/kg qd (n = 6), 6 weeks, group mean
  eGFRcreat-cys: 53 ± 8 ml/min/1.73 m^2
[1]; 5 mg/kg qd (n = 6), 8 weeks
  eGFRcreat-cys: 57 ml/min/1.73 m^2 and 53 ml/min/1.73 m^2 and 55 ml/min/1.73 m^2 and 43 ml/min/1.73 m^2 and 61 ml/min/1.73 m^2 and 60 ml/min/1.73 m^2
[1]; 5 mg/kg qd (n = 6), 8 weeks, group mean
  eGFRcreat-cys: 55 ± 7 ml/min/1.73 m^2
[1]; 5 mg/kg qd (n = 6), Baseline, single animals and Mean ± SD
  eGFRcreat-cys: 55 ml/min/1.73 m^2 and 48 ml/min/1.73 m^2 and 51 ml/min/1.73 m^2 and 41 ml/min/1.73 m^2 and 53 ml/min/1.73 m^2 and 43 ml/min/1.73 m^2
[1]; 5 mg/kg qd (n = 6), Baseline, single animals and Mean ± SD, group mean
  eGFRcreat-cys: 49 ± 5 ml/min/1.73 m^2
[1]; 2-5 mg/kg qd for 8 weeks
  glomerular filtration rate eGFRcreat-cys improvement: can be significantly improved
[2]; 2 weeks
  Cr-P: 1.21 mg/dL and 1.07 mg/dL and 1.12 mg/dL and 1.13 mg/dL and 1.24 mg/dL
[2]; 2 weeks, mean
  Cr-P: 1.15 ± 0.07 mg/dL
[2]; 4 weeks
  Cr-P: 1.11 mg/dL and 1.01 mg/dL and 1.12 mg/dL and 1.06 mg/dL and 1.26 mg/dL
[2]; 4 weeks, mean
  Cr-P: 1.11 ± 0.09 mg/dL
[2]; 6 weeks
  Cr-P: 1.16 mg/dL and 1.07 mg/dL and 1.22 mg/dL
[2]; 6 weeks, mean
  Cr-P: 1.12 ± 0.07 mg/dL
[2]; 8 weeks
  Cr-P: 1.14 mg/dL and 1.01 mg/dL and 1.17 mg/dL and 1.18 mg/dL and 1.22 mg/dL
[2]; 8 weeks, mean
  Cr-P: 1.14 ± 0.08 mg/dL

— patent US20230330093A1, “APPLICATION OF NITROGEN-CONTAINING SATURATED HETEROCYCLIC COMPOUND” (SHANGHAI PHARMACEUTICALS HOLDING CO., LTD., priority 2020, published 2023)
